# Data taken from paper PMC8752738, “A propolis-derived small molecule ameliorates metabolic syndrome in obese mice by targeting the CREB/CRTC2 transcriptional complex” (Nature Communications, 2022).
# Values joined by “and” are separate entries in the source; they are usually repeats but may differ in a detail not shown here. Identical values can stand only once.
# Columns and labels:
# HIS-CREB protein = target: T1, HIS-CREB protein (Homo sapiens, UniProt P16220); assay: Isothermal titration calorimetry; type: binding; conditions: HIS-CREB titrated into APC solution, one-site model; read-out: equilibrium dissociation constant (KD) between APC and CREB
# T1 construct: made in house
# Experimental: Isothermal titration calorimetry was performed using a MicroCal iTC200 calorimeter (Freiburg, Germany). The purified HIS-CREB protein and APC were diluted in buffer (PBS with 500 mM NaCl and 10% glycine, pH 8.0). APC solution was titrated by injection of HIS-CREB. The originally released heat from molecules binding was recorded and analyzed by Origin9 software (Origin Lab) supplied with the instrument.
# AMPK = assay: Phospho-AMPK immunoblot in primary hepatocytes; type: cell-based, mouse; conditions: for relative p-AMPK protein, mean: N=3 (0 μM = 1); for relative p-AMPK protein: Supp. fig.3e, individual replicates
# Experimental: Immunoblotting and immunoprecipitation assays were performed as previously described, with antibodies recognizing CREB, Ser133-P-CREB, AMPK, P-AMPK, AKT, P-AKT (Cell Signaling), PGC-1α (Merck), CRTC2 (Calbiochem), PCK1 (Santa Cruz), SREBP1 (Santa Cruz), SREBP2 (BD), HA (Convance), LXRα (Santa Cruz), FLAG (Sigma), GST (Covance), HIS (Abmart), GAPDH (AOGMA), α-TUBULIN (Abmart), β-ACTIN (Abmart), and other antibodies (Supplementary Table 3). For immunostaining assays, primary cultured hepatocytes seeded on coverslips were fixed with 4% paraformaldehyde for 20 min, permeabilized with 0.3% Triton X-100 in PBS, and then blocked by 5% normal goat serum and 0.3% Triton X-100 in PBS, followed by incubation with anti-CREB (1:1000), anti-P-CREB (1:1000), or anti-HA (1:3000) antibodies for 1 h at 4 °C. Slides were then washed, and after washing, slides were incubated with fluorochrome-conjugated secondary antibodies (Invitrogen). Slides were then washed and mounted with Vectashield mounting media containing 4, 6-diamidino-2-phenylindole (DAPI).
# 1 Supplementary Figure 3. APC inhibits gluconeogenesis independent of CREB-phosphorylation,
# 2 cell toxin or AMPK activation. […]
# 20 e) Phosphate-AMPK level in primary hepatocytes incubated with APC or metformin (MET) at
# 21 indicated concentrations (0–200 μM) for 30 minutes (top). Relative P-AMPK normalized by AMPK is […]
# [1] = Tissue distribution assay; type: in vivo, mouse; conditions: for APC content in tissue: oral, individual mice
# Experimental: Male C57/BL6 mice (18–20 g, n = 3 in each group) were randomly sorted into treatment groups. Being fasted for 12-h, mice were treated with oral gavage of the compound APC (20 mg/kg, in DMSO/0.5% HMPC, 5/95, v/v). After 2, 4, and 8-h of administration, the animals were sacrificed, respectively, the indicated tissues, including plasma, liver, kidney, muscle, brain, spleen, pancreas, white and brown fat, were collected and preserved at −80 °C. The APC content in samples was analyzed with a liquid chromatography-mass spectrometry/mass spectrometry (LC–MS/MS) system and normalized by protein content.
# [2] = 200 μM (first of two lines printed 200)
# [3] = 200 μM (second of two lines printed 200)
# T1 sequence (P16220 whole entry): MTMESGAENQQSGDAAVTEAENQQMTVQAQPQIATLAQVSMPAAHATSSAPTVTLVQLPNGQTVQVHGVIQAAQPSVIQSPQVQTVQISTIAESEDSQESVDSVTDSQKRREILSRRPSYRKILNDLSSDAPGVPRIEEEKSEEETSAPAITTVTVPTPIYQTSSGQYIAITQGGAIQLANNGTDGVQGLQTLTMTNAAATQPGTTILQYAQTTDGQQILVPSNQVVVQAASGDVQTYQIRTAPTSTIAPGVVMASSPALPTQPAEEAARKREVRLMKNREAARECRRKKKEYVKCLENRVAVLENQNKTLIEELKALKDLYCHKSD
compound,measurement,setting,value
"CC(C)=CCc1cc(C=CC(=O)O)cc(CC=C(C)C)c1O [APC, 3,5-diprenyl-4-hydroxycinnamic acid]",Kd,HIS-CREB protein,~3.2 µM and 3.2 µM
same,"relative p-AMPK protein, mean",AMPK; 5 μM,0.9451
same,"relative p-AMPK protein, mean",AMPK; 10 μM,0.8939
same,"relative p-AMPK protein, mean",AMPK; 100 μM,0.906
same,"relative p-AMPK protein, mean",AMPK; [2],0.9865
same,"relative p-AMPK protein, mean",AMPK; [3],1.094
same,relative p-AMPK protein,AMPK; 5 μM,1.019 and 0.9566 and 0.8598
same,relative p-AMPK protein,AMPK; 10 μM,0.8723 and 0.8495 and 0.96
same,relative p-AMPK protein,AMPK; 100 μM,0.9495 and 0.9349 and 0.8336
same,relative p-AMPK protein,AMPK; [2],0.9904 and 0.9893 and 0.9798
same,relative p-AMPK protein,AMPK; [3],1.017 and 1.161 and 1.105
same,"relative p-AMPK protein, column mean","AMPK; mean over all concentrations, 0 μM included",0.971
same,phosphorylation of AMPK,"AMPK; primary hepatocytes, up to 200 μM",did not induce phosphorylation of AMPK
same,content of APC in the liver compared with other tissues,[1]; 2–8 h after one oral dose 20 mg/kg,highest
same,APC content in tissue,"[1]; Brain, 2H, * below the detection line, 2 h after oral dose",0* ng/g (2×) and 16.430 ng/g
same,APC content in tissue,"[1]; Brain, 4H, * below the detection line",0* ng/g
same,APC content in tissue,"[1]; Brain, 4H, * below the detection line, 4 h after oral dose",1.550 ng/g and 4.810 ng/g
same,APC content in tissue,"[1]; Brain, 8H, * below the detection line",0* ng/g
same,APC content in tissue,"[1]; BrownFat, 2H, 2 h after oral dose",9.800 ng/g and 11.690 ng/g
same,APC content in tissue,"[1]; BrownFat, 4H",9.800 ng/g
same,APC content in tissue,"[1]; BrownFat, 4H, 4 h after oral dose",14.240 ng/g and 144.870 ng/g
same,APC content in tissue,"[1]; BrownFat, 8H",1.740 ng/g and 5.480 ng/g and 3.880 ng/g
same,APC content in tissue,"[1]; Kidney, 2H, 2 h after oral dose",23.340 ng/g and 9.890 ng/g and 11.250 ng/g
same,APC content in tissue,"[1]; Kidney, 4H",9.550 ng/g
same,APC content in tissue,"[1]; Kidney, 4H, 4 h after oral dose",19.740 ng/g and 19.810 ng/g
same,APC content in tissue,"[1]; Kidney, 8H",2.260 ng/g and 4.200 ng/g and 7.700 ng/g
same,APC content in tissue,"[1]; Live (liver), 2H, 2 h after oral dose",703.950 ng/g and 577.440 ng/g
same,APC content in tissue,"[1]; Live (liver), 4H",815.560 ng/g
same,APC content in tissue,"[1]; Live (liver), 4H, 4 h after oral dose",1205.720 ng/g
same,APC content in tissue,"[1]; Live (liver), 8H",287.680 ng/g and 320.280 ng/g
same,APC content in tissue,"[1]; Muscle, 2H, 2 h after oral dose",2.680 ng/g and 4.690 ng/g
same,APC content in tissue,"[1]; Muscle, 4H",13.390 ng/g
same,APC content in tissue,"[1]; Muscle, 4H, 4 h after oral dose",7.190 ng/g
same,APC content in tissue,"[1]; Muscle, 8H",0.000 ng/g and 1.740 ng/g and 1.650 ng/g
same,APC content in tissue,"[1]; Pancreas, 2H, 2 h after oral dose",18.050 ng/g and 11.070 ng/g and 26.740 ng/g
same,APC content in tissue,"[1]; Pancreas, 4H",33.580 ng/g
same,APC content in tissue,"[1]; Pancreas, 4H, 4 h after oral dose",20.040 ng/g and 8.730 ng/g
same,APC content in tissue,"[1]; Pancreas, 8H, * below the detection line",10.890 ng/g and 0* ng/g (2×)
same,APC content in tissue,"[1]; Spleen, 2H, 2 h after oral dose",10.360 ng/g and 16.550 ng/g
same,APC content in tissue,"[1]; Spleen, 4H",12.280 ng/g
same,APC content in tissue,"[1]; Spleen, 4H, 4 h after oral dose",22.450 ng/g
same,APC content in tissue,"[1]; Spleen, 8H",0.000 ng/g and 12.270 ng/g and 10.910 ng/g
same,APC content in tissue,"[1]; WhiteFat, 2H, 2 h after oral dose",10.520 ng/g and 12.290 ng/g
same,APC content in tissue,"[1]; WhiteFat, 4H",42.520 ng/g
same,APC content in tissue,"[1]; WhiteFat, 4H, 4 h after oral dose",32.220 ng/g
same,APC content in tissue,"[1]; WhiteFat, 8H",3.140 ng/g and 8.490 ng/g and 14.550 ng/g
